According to patent US8815305B2, “Composition containing a plant extract and process for producing same” (BASF Beauty Care Solutions France S.A.S., priority 2003, dated 2014):

What was measured:
bovine chymotrypsin = bovine chymotrypsin (Bos taurus, UniProt P00766); details: competitive or non-competitive; cited from earlier work
bovine trypsin = biological target: T1, bovine trypsin (Bos taurus, UniProt P00760); details: competitive or non-competitive; cited from earlier work
T1 sequence (P00760 24-246): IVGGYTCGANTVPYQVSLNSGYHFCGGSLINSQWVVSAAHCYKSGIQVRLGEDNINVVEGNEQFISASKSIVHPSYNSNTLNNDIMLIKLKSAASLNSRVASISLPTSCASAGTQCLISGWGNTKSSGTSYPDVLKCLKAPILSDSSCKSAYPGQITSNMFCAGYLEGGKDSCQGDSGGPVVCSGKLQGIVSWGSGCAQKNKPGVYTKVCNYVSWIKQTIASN

leucine aminopeptidase [1] = details: cited from earlier work
leucine aminopeptidase [2] = details: cited from earlier work; remark: listed apart in the source
[3] = biological target: porcine pancreatic elastase (Sus scrofa, UniProt P00772); details: cited from earlier work
porcine pancreatic elastase, sequence (P00772 27-266): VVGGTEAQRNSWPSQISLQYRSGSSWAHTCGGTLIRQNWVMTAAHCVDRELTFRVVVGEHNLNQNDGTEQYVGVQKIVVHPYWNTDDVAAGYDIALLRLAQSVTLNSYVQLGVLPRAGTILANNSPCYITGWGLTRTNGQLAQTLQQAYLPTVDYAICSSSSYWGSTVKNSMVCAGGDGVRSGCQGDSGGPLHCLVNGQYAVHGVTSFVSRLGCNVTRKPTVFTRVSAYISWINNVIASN

[4] = biological target: T2, human leucocyte elastase (HLE) (Homo sapiens, UniProt P08246); details: read-out: HLE inhibitory activity IC(50); cited from earlier work
T2 sequence (P08246 30-267): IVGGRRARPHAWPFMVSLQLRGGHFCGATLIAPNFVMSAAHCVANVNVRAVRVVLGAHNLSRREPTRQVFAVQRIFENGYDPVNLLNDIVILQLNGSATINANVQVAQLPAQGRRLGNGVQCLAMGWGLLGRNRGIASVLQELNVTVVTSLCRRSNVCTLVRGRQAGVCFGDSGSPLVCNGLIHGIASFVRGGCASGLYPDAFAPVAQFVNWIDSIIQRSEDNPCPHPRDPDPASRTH

human fibroblasts [5] = assay: Survival efficacy test on human fibroblasts (DNA, ATP, proteins, GSH); type: cell-based; details: for ATP / DNA / GSH/proteins / Proteins: quiescent fibroblasts, 3 days
Experimental: Human fibroblasts were inoculated in a standard medium of a cell culture with foetal calf serum (FCS). After an incubation of 3 days the cells became quiescent, then the growth medium was exchanged for a standard medium with a range of concentrations for each ingredient to be tested. After an incubation of 3 days, the number of viable cells was determined by evaluation of the levels of and the rates of cellular DNA (fluorescent probe), ATP (enzymatic method), proteins (Bradford's method) and GSH which is evaluated according to the method of Hissin (Hissin P. J., Hilf R. A, fluorometric method for determination of oxidised and reduced Glutathione in tissues. Analytical Biochemistry (1977) volume 74, pages 214-226).

elastase from pancreas = elastase from pancreas (Sus scrofa, UniProt P00772); assay: Elastase inhibition, Elastin-Congo red as substrate; type: biochemical
elastase from pancreas, sequence (P00772 27-266): as the sequence (P00772 27-266) above
Experimental: This test was carried out with an elastase from pancreas on Elastin labelled with Congo red. The time of incubation was 30 minutes at room temperature and the optical density of released Congo red was recorded after centrifugation at a wavelength of 520 nm. al-antitrypsine was used as positive reference.
The following table summarizes the results expressed as EC 50 in % w/v. (EC 50 in % w/v is the concentration in % w/v which reduces the enzymatic activity by 50%.)

[6] = test system: skin chronic inflammation; details: in vivo; cited from earlier work
human fibroblasts [7] = assay: Toxicity tests and growth tests on human fibroblasts (cellular proteins, Bradford); type: cell-based
[8] = as above; type: cell-based; details: human
[9] = biological target: T2, human leucocyte elastase (HLE); details: cited from earlier work
human fibroblasts [10] = assay: Cytophotoprotection of human fibroblasts against UV-A radiation; type: cell-based
Experimental: The cytoprotection against UV-A radiation was evaluated by a test on human fibroblasts because UV-A radiation penetrates through the epidermis until the derma where it induces oxidative stress (DALLE CARBONARE M, PATHAK M A; Skin photosensitising agents and the role of reactive oxygen species in photoaging; JOURNAL OF PHOTOCHEMISTRY & PHOTOBIOLOGY, 1992, 14, 1-2, pages 105-124. This oxidative stress was evaluated in vitro by measuring of the level of released MDA (malonaldehyde) and of intracellular GSH (reduced glutathione) (Morliere P., Moisan A., Santus R., Huppe G., Mazière J. C., Dubertret L.: UV-A induced lipid peroxydation in cultured human fibroblasts. Biochim. Biophys. Acta, 1084, 3, pages 261-269 (1991)).
Expressed in keywords, the experiments were carried out as follows: • Inoculation of human fibroblasts within a growth medium (standard medium with foetal calf serum (FCS) • Incubation 3 days at 37° C., CO2=5% • Exchange of growth medium with balanced salt solution • Irradiation of fibroblasts by UV-A: 20 J/cm^2 (black light TFWN lamp) (A TFWN lamp is a certain type of marketed sunlamp well known to the skilled artisan) • Exchange of growth medium with standard medium without FCS but containing ingredient to be tested • Incubation 3 days at 37° C., CO2=5% • Recovery of supernatant medium for spectrophotometric determination of the malonaldialdehde (or MDA) rate • Cells number determined by evaluation of the levels of cellular proteins (Bradford's method) and the rate of cellular GSH was evaluated according to the method of Hissin

human keratinocytes = assay: Cytophotoprotection of human keratinocytes against UV-B radiation; type: cell-based; details: for Cell number, % against control / Released LDH, % against control / Released PGE2, % against control: UVB
From the text: UV-B irradiation (from 280 to 320 nm) of the human skin induces a cutaneous inflammation mainly by activation of an enzyme (phospholipase A2 or PLA2), which releases arachidonic acid from the cell membranes of the cells of the skin (V. A. De Leo, D. Hanson, I. B. Weinstein and L. C. Harber—Ultraviolet radiation stimulates the release of arachidonic acid from mammalian cells in culture—Photochemistry and Photobiology (1985) volume 41N°1 pages 51-56). Then other specific enzymes (so called cyclo-oxygenases) transform arachidonic acid in active components called prostaglandines (or PG) which are secreted out of the cells. The fixation of certain prostaglandins (PGE2) on specific skin receptors is followed by redness and swelling as after a sunburn. On cultured human cells, these UV-B effects on cell membranes are associated with a release in the supernatant medium of a cytoplasmic enzyme, the Lactate Dehydrogenase or LDH (B. Bonnekoh, B. Farkas, J. Geisel and G. Mahrle—Lactate dehydrogenase release as an indicator of dithranol-induced membrane injury in cultured human keratinocytes. Dermatological research (1990) volume 282, pages 325-331).
Expressed in keywords, the experiments were carried out as follows: • Inoculation of human keratinocytes within growth medium (standard medium with fetal calf serum (FCS) • Incubation 3 days at 37° C., CO2=5% • Exchange of growth medium with balanced salt solution containing ingredient to be tested • Irradiation of keratinocytes by UV-B: 50 mJ/cm^2 (DUKE GL40E lamp) (A DUKE GL40E lamp is a certain type of marketed sunlamp well known to the skilled artisan) • Incubation 1 day at 37° C., CO2=5% • Numeration of adherent cells after trypsination (trypsination is a process based on the use of the enzyme trypsine which is a protease allowing the retrieval of cell from the support in order to seed the cells into a bigger flask and therefore to expand the cell culture) • Recovery of supernatant medium for spectrophotometric determination of the activity of LDH, and PGE2 by ELISA method

C[C@H]1[C@H](C)CC[C@]2(C)CC[C@]3(C)C(=CC[C@@H]4[C@@]5(C)CC[C@H](O)C(C)(C)[C@@H]5CC[C@]43C)[C@H]12 [alpha-amyrin]
Ki (bovine chymotrypsin): 18 µM | Ki (bovine trypsin): 29 µM | inhibition of Helicoverpa punctigera leucine aminopeptidase (leucine aminopeptidase [1]): ineffective or very weak | inhibition of Lucilia cuprina leucine aminopeptidase (leucine aminopeptidase [2]): ineffective or very weak | inhibition of porcine pancreatic elastase [3]: ineffective or very weak

C[C@H]1C(=O)CC[C@@H]2[C@]1(C)CC[C@H]1[C@@]2(C)CC[C@@]2(C)[C@@H]3CC(C)(C)CC[C@]3(CO)CC[C@]12C [canophyllol]
IC50 [4]: 2500 nM

CC1(C)CC[C@]2(CO)CC[C@]3(C)C(=CC[C@@H]4[C@@]5(C)CC[C@H](O)C(C)(C)[C@@H]5CC[C@]43C)[C@@H]2C1 [erythrodiol]
ATP (human fibroblasts [5]; 0.00001% w/v): 107% | DNA (human fibroblasts [5]; 0.00001% w/v): 96% | GSH/proteins (human fibroblasts [5]; 0.00001% w/v): 120% | Proteins (human fibroblasts [5]; 0.00001% w/v): 100% | ATP (human fibroblasts [5]; 0.00003% w/v): 99% | DNA (human fibroblasts [5]; 0.00003% w/v): 108% | GSH/proteins (human fibroblasts [5]; 0.00003% w/v): 141% | Proteins (human fibroblasts [5]; 0.00003% w/v): 97% | ATP (human fibroblasts [5]; 0.0001% w/v): 66% | DNA (human fibroblasts [5]; 0.0001% w/v): 78% | GSH/proteins (human fibroblasts [5]; 0.0001% w/v): 101% | Proteins (human fibroblasts [5]; 0.0001% w/v): 91% | ATP (human fibroblasts [5]; 0.0003% w/v): 73% | DNA (human fibroblasts [5]; 0.0003% w/v): 59% | GSH/proteins (human fibroblasts [5]; 0.0003% w/v): 88% | Proteins (human fibroblasts [5]; 0.0003% w/v): 83% | amount of GSH synthesized by human fibroblasts (human fibroblasts [5]; only at a concentration of 0.00003%): modified | inhibition of proteases such as elastase (elastase from pancreas): good potential to inhibit | IC50 (elastase from pancreas; 30 minutes at room temperature, Elastin-Congo red, read-out: Elastase EC 50 (concentration which reduces the enzymatic activity by 50%) (converted)): 1.81 mM | activity on chronic dermal inflammation [6]: significantly effective | LD50 (% w/v) (human fibroblasts [7]; human fibroblasts, 3 days incubation): 0.0009% w/v | safe at concentrations up to (human fibroblasts [7]; human, 3 days): up to 0.0003% | viability at 3 days, 0.0001 % [8]: 104% | viability at 3 days, 0.0003 % [8]: 105% | viability at 3 days, 0.001 % [8]: 43% | viability at 3 days, 0.003 % [8]: 34% | interaction with the ursolic acid binding site of HLE [9]: can also interact with this binding site | protection of human fibroblasts from toxic UVA effects (human fibroblasts [10]): moderately protected | GSH/protein, % against control (human fibroblasts [10]; UV-A 20 J/cm^2, dose 0.0001%): 94% | Released MDA, % against control (human fibroblasts [10]; UV-A 20 J/cm^2, dose 0.0001%): 81% | cell's protein, % against control (human fibroblasts [10]; UV-A 20 J/cm^2, dose 0.0001%): 139% | GSH/protein, % against control (human fibroblasts [10]; UV-A 20 J/cm^2, dose 0.0003%): 22% | Released MDA, % against control (human fibroblasts [10]; UV-A 20 J/cm^2, dose 0.0003%): 70% | cell's protein, % against control (human fibroblasts [10]; UV-A 20 J/cm^2, dose 0.0003%): 42% | UV toxic effects on the number of viable cells (cell number and released LDH) (human keratinocytes): not modified | Cell number, % against control (human keratinocytes; dose 0.00001%): 21% | Released LDH, % against control (human keratinocytes; dose 0.00001%): 135% | Released PGE2, % against control (human keratinocytes; dose 0.00001%): 135% | Cell number, % against control (human keratinocytes; dose 0.00003%): 23% | Released LDH, % against control (human keratinocytes; dose 0.00003%): 118% | Released PGE2, % against control (human keratinocytes; dose 0.00003%): 164%

C=C(C)[C@@H]1CC[C@]2(C)CC[C@]3(C)[C@H](CC[C@@H]4[C@@]5(C)CC[C@H](O)C(C)(C)[C@@H]5CC[C@]43C)[C@@H]12 [lupeol]
Ki (bovine chymotrypsin): 8 µM | Ki (bovine trypsin): 22 µM | inhibition of Helicoverpa punctigera leucine aminopeptidase (leucine aminopeptidase [1]): ineffective or very weak | IC50 [4]: 1900 nM | inhibition of Lucilia cuprina leucine aminopeptidase (leucine aminopeptidase [2]): ineffective or very weak | inhibition of porcine pancreatic elastase [3]: ineffective or very weak

C[C@H]1[C@H](C)CC[C@]2(C(=O)O)CC[C@]3(C)C(=CC[C@@H]4[C@@]5(C)CC[C@H](O)C(C)(C)[C@@H]5CC[C@]43C)[C@H]12 [ursolic acid]
IC50 [4]: 4400 nM | activity on chronic dermal inflammation [6]: significantly effective | Ki ([9]; hydrolysis of peptide substrates in phosphate-buffered saline, read-out: inhibition constant, HLE): 4 to 6 µM

A1 anti trypsine: positive reference of the elastase test
Elastase EC 50 (concentration which reduces the enzymatic activity by 50%) (elastase from pancreas; 30 minutes at room temperature, Elastin-Congo red): 0.03% w/v
